The source of these data is ChEMBL document CHEMBL5385891, “Design and discovery of novel dipeptide boronic acid ester proteasome inhibitors, an oral slowly-released prodrug for the treatment of multiple myeloma” (Eur J Med Chem, 2023).

A short description of data set [1]: Stability of the compound in stimulated […] fluid at pH 6.8 measured after 1 min. The format is ADME. The note with it: simulated intestinal fluid, read-out: Stability.
Data set [2] is described as follows: Stability of the compound in stimulated […] fluid at pH 1.2 measured after 1 min. The note with it: simulated gi fluid, pH 1.2, 1 min. In kind it is ADME.
A short description of data set [3]: Stability of the compound in stimulated […] fluid at pH 1.2 measured after 8 hrs. In kind it is ADME. The note with it: simulated gi fluid, pH 1.2, 8 h.
A short description of data set [4]: Stability of the compound in stimulated […] fluid at pH 6.8 measured after 12 hrs. The format is ADME. The note with it: simulated intestinal fluid, read-out: Stability.
The nature of data set [5]: Stability of the compound in stimulated […] fluid at pH 6.8 measured after 2 hrs. The note with it: simulated intestinal fluid, read-out: Stability. The format is ADME.
The nature of data set [6]: Stability of the compound in stimulated […] fluid at pH 1.2 measured after 12 hrs. The format is ADME. As to conditions: simulated gi fluid, pH 1.2, 12 h.
A short description of data set [7]: Toxicity in Balb/c mouse xenografted with human RPMI-8226 cells assessed as body weight loss at 10 mg/kg,po administrated biweekly for 21 days. In kind it is organism-based. The note with it: in vivo, 504 h, time 21 day.
Data set [8] in a line: Stability of the compound in stimulated […] fluid at pH 1.2 measured after 2 hrs. In kind it is ADME. The note with it: simulated gi fluid, pH 1.2, 2 h.
Data set [9] deals with RPMI-8226. Kind of data set: Cytotoxicity against human RPMI-8226 cells assessed as inhibition of cell proliferation incubated for 72 hrs by Cell Titer-Glo luminescence assay. In kind it is functional, cell-based. As to conditions: RPMI-8226, 72 h.
Data set [10] concerns RPMI-8226. Kind of data set: Antitumor activity against human RPMI-8226 cells xenografted in Balb/c mouse assessed as tumor growth inhibition at po administration biweekly for 21 days. In kind it is functional, organism-based. As to conditions: time 21.0 day.
Data set [11] can be described thus: Stability of the compound in stimulated […] fluid at pH 6.8 measured after 4 hrs. As to conditions: simulated intestinal fluid, read-out: Stability. The format is ADME.
Data set [12] is described as follows: Stability of the compound in stimulated […] fluid at pH 6.8 measured after 8 hrs. The format is ADME. The note with it: simulated intestinal fluid, read-out: Stability.
Data set [13] is described as follows: Stability of the compound in stimulated […] fluid at pH 1.2 measured after 4 hrs. The note with it: simulated gi fluid, pH 1.2, 4 h. The format is ADME.
The nature of data set [14]: Toxicity in Balb/c mouse xenografted with human RPMI-8226 cells assessed as body weight loss at 6 mg/kg,po administrated biweekly for 21 days. In kind it is organism-based. The note with it: in vivo, 504 h, time 21 day.
Data set [15] in a line: Half life in dog liver microsomes at 1 uM incubated for 2 to 60 mins in presence of NADPH by LC-MS/MS analysis. In kind it is ADME, Canis lupus familiaris, Microsome. The note with it: time 2-60 min.
Data set [16] in a line: Half life in Sprague-Dawley rat at 0.4 mg/kg,iv measured upto 24 hrs by LC-MS/MS analysis. In kind it is ADME, organism-based. As to conditions: in vivo.
Data set [17] is described as follows: Intrinsic clearance in human liver microsomes at 1 uM incubated for 2 to 60 mins in presence of NADPH by LC-MS/MS analysis. The format is ADME, Microsome. As to conditions: time 2-60 min, read-out: CLH.
The nature of data set [18]: AUC(0-t) in Sprague-Dawley rat at 1.2 mg/kg,IG measured upto 24 hrs by LC-MS/MS analysis. In kind it is ADME, organism-based. Further details: dose 1.2 mg/kg, time < 24 hrs, route ig. The note with it: in vivo, po.
Data set [19] is described as follows: Half life in human liver microsomes at 1 uM incubated for 2 to 60 mins in presence of NADPH by LC-MS/MS analysis. In kind it is ADME, Microsome. As to conditions: time 2-60 min.
The nature of data set [20]: Half life in Sprague-Dawley rat at 1.2 mg/kg,IG measured upto 24 hrs by LC-MS/MS analysis. In kind it is ADME, organism-based. The note with it: in vivo, po.
Data set [21] is described as follows: Oral bioavailability in Sprague-Dawley rat at 1.2 mg/kg measured upto 24 hrs by LC-MS/MS analysis. The format is ADME, organism-based. The note with it: in vivo.
Data set [22] can be described thus: Intrinsic clearance in mouse liver microsomes at 1 uM incubated for 2 to 60 mins in presence of NADPH by LC-MS/MS analysis. In kind it is ADME, Microsome. The note with it: time 2-60 min, read-out: CLH.
Data set [23] has as its target Voltage-gated inwardly rectifying potassium channel KCNH2 (Homo sapiens, UniProt Q12809). Kind of data set: Inhibition of human ERG expressed in HEK293 cells. The format is toxicity, cell-based.
Data set [24] can be described thus: Half life in mouse liver microsomes at 1 uM incubated for 2 to 60 mins in presence of NADPH by LC-MS/MS analysis. In kind it is ADME, Microsome. As to conditions: time 2-60 min.
Data set [25] can be described thus: Intrinsic clearance in dog liver microsomes at 1 uM incubated for 2 to 60 mins in presence of NADPH by LC-MS/MS analysis. The format is ADME, Canis lupus familiaris, Microsome. The note with it: time 2-60 min, read-out: CLH.
Data set [26] in a line: Half life in monkey liver microsomes at 1 uM incubated for 2 to 60 mins in presence of NADPH by LC-MS/MS analysis. As to conditions: rhesus monkey, time 2-60 min. In kind it is ADME, Macaca mulatta, Microsome.
A short description of data set [27]: Intrinsic clearance in monkey liver microsomes at 1 uM incubated for 2 to 60 mins in presence of NADPH by LC-MS/MS analysis. In kind it is ADME, Macaca mulatta, Microsome. The note with it: rhesus monkey, time 2-60 min, read-out: CLH.
The nature of data set [28]: Cmax in Sprague-Dawley rat at 1.2 mg/kg,IG measured upto 24 hrs by LC-MS/MS analysis. The format is ADME, organism-based. Further details: time < 24 hrs, dose 1.2 mg/kg, route ig. The note with it: in vivo, po.
Data set [29] can be described thus: Intrinsic clearance in rat liver microsomes at 1 uM incubated for 2 to 60 mins in presence of NADPH by LC-MS/MS analysis. In kind it is ADME, Microsome. As to conditions: time 2-60 min, read-out: CLH.
Data set [30] can be described thus: AUC (0-t) in Sprague-Dawley rat at 0.4 mg/kg,iv measured upto 24 hrs by LC-MS/MS analysis. The format is ADME, organism-based. Further details: time < 24 hrs, dose 0.4 mg/kg, route iv. As to conditions: in vivo.
Data set [31] in a line: Half life in rat liver microsomes at 1 uM incubated for 2 to 60 mins in presence of NADPH by LC-MS/MS analysis. The format is ADME, Microsome. The note with it: time 2-60 min.
Data set [32] can be described thus: Tmax in Sprague-Dawley rat at 1.2 mg/kg,IG measured upto 24 hrs by LC-MS/MS analysis. The format is ADME, organism-based. As to conditions: in vivo, po.
Another data set deals with 20S proteasome. Kind of data set: Inhibition of human 20S proteasome chymotrypsin-like activity using Suc-Leu-Leu-Val-Tyr-AMC as fluorogenic peptide pre-incubated for 10 mins with compound followed by substrate addition for 60 mins by spectrofluorimetric analysis. The format is protein-complex assay.

Sequence of Voltage-gated inwardly rectifying potassium channel KCNH2 (Q12809 whole entry): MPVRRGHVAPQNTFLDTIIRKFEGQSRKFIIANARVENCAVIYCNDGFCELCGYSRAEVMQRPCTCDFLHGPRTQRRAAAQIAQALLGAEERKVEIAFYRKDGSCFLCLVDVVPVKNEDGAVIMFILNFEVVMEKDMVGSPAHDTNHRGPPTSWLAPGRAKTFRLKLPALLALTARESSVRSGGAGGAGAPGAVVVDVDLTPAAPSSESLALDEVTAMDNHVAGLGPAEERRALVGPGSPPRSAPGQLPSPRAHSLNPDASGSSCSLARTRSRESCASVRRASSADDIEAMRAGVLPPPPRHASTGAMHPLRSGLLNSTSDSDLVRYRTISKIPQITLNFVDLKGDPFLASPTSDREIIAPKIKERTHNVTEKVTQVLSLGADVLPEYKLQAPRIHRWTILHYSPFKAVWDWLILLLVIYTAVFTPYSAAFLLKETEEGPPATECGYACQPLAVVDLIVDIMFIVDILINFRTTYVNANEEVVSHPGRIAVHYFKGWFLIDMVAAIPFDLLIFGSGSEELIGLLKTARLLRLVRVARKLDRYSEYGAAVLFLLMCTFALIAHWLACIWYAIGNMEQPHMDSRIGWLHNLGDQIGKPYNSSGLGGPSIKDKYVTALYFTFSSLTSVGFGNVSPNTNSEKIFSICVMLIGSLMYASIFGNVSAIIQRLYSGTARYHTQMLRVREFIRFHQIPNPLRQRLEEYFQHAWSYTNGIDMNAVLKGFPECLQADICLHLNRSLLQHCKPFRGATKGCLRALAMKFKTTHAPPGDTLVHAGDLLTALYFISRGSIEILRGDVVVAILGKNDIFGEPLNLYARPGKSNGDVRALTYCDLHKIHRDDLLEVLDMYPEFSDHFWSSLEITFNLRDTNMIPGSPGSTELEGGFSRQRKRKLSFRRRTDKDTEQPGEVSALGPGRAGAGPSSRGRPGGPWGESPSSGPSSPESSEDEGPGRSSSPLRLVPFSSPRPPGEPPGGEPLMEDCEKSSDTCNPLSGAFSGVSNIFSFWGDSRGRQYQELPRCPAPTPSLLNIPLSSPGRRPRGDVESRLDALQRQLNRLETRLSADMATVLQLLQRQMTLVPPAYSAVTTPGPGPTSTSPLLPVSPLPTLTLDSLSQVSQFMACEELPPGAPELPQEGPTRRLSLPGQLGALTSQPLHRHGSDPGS

With `CC(C)C[C@H](NC(=O)CNC(=O)c1cc(Cl)ccc1Cl)B(O)O` [IXAZOMIB], in data set [1], the remaining at 1 min was 12.6%. Further, the Stability in [2], in data set [3], in data set [6], in [8] and in data set [13] was 100% each time. The remaining at 12 h in [4] is 100%. Moreover, the remaining at 2 h in data set [5] was 100%. Also, the Activity result in [7] is “Non-Toxic”; in the data set on RPMI-8226 [10], “Dose-Dependent Effect”; in data set [14] it was “Non-Toxic”. Moreover, in the data set on RPMI-8226 [9], the 50% inhibitory concentration (IC50) stood at 7.4 nM. Moreover, the remaining at 4 h in data set [11] was 100%. The remaining at 8 h in [12] is 100%.
In the case of `CC(C)C[C@H](NC(=O)C(CC1CC1)NC(=O)c1cc(C(F)(F)F)ccc1C(F)(F)F)B1OC2C3OC(CC3C(=O)O)C2(C)O1` (some centres not stated), the half-life at 1 µM was 72.9 min in data set [15]; 28.3 min in data set [19]; 28.3 min in data set [24]; 8.8 min in data set [26]; 25.2 min in [31]. Moreover, the half-life in [16] is 1450 min; in data set [20], 1800 min. The remaining at 1 min in data set [1] is 2.27%. The microsomal CLint at 1 µM is 49 µL/min/mg in data set [17]; 49 µL/min/mg in [22]; 19 µL/min/mg in data set [25]; 158 µL/min/mg in data set [27]; 55 µL/min/mg in data set [29]. The Stability is listed as 6.44% in data set [2]; 58.68% in data set [3]; 59.68% in data set [6]; 59.73% in data set [8]; 58.25% in data set [13]. For the same molecule, the values for the area under the curve AUC(0-t) at 24 h in data set [18] and in [30] were 2680 ng·h/mL and 2270 ng·h/mL, respectively. For the same molecule, in data set [4], the remaining at 12 h is 6.77%. Besides, the remaining at 2 h in [5] is 3.55%. This molecule also gave a bioavailability in [21] of 34%. Also, the IC50 in data set [23] is greater than 30000 nM; in the data set on RPMI-8226 [9], 5.6 nM; at 20S proteasome it was 2.2 nM. Also, the Activity entry in data set [7] is “Non-Toxic”; in the data set on RPMI-8226 [10] it was “Dose-Dependent Effect”; in data set [14], “Non-Toxic”. Besides, the concentration in data set [28] peaked (Cmax) at 174 ng/mL. Besides, the remaining at 4 h in data set [11] was 3.98%. Besides, in data set [12], the remaining at 8 h was 5.24%. Besides, in data set [32], the Tmax was 49.8 min.
